We go through 1 molecule from paper PMC7269481, “ZN148 Is a Modular Synthetic Metallo-β-Lactamase Inhibitor That Reverses Carbapenem Resistance in Gram-Negative Pathogens In Vivo” (Antimicrobial Agents and Chemotherapy, 2020).

Series [1] concerns NDM-1-producing K. pneumoniae K66-45. Nature of the series: Serial passage on increasing meropenem. It is filed as cell-based. The note with it: for fold increase in meropenem MIC after serial passaging: compared to control culture / original MIC. On the procedure: K. pneumoniae K66-45 was passaged in a 96-well microtiter plate with a consistent concentration of ZN148 and increasing concentrations of meropenem. To start the passaging, cation-adjusted Mueller-Hinton broth II medium (Sigma-Aldrich) containing 0.0625 mg/liter (0.5× MIC) and 50 or 100 μM ZN148 was inoculated with 1% of overnight culture, which was grown without selection. Six biological replicates were passaged in parallel, and from each of the six overnight cultures four wells were inoculated, resulting in 24 subcultures for each ZN148 concentration. After 24 h of incubation at 37°C and shaking at 180 rpm, the wells were visually checked for growth.

The next series addresses T1, VIM-2 (Escherichia coli, UniProt Q5U7L7).
T1 construct: made in house
Nature of the series: Zinc content determination by ICP-MS, VIM-2. It is filed as biochemical. The note with it: ICP-MS after preincubation. As to the method: Inductively coupled plasma mass spectrometry (ICP-MS) was used to investigate the chelating property of ZN148 by measuring the zinc concentration (Zn^66) after incubation of VIM-2 with or without ZN148 in zinc depleted 50 mM HEPES buffer (pH 7.5; Chelex HEPES buffer). The Chelex buffer was prepared by stirring 2 g of Chelex resin (Bio-Rad, Hercules, CA) in 100 ml of 50 mM HEPES buffer (pH 7.5). The resin was subsequently removed by sterile filtration (Merck Millipore, 0.22 μm). VIM-2 (10 g/liter) was diluted to 12.5 mg/liter and mixed with ZN148 at different final concentrations (0, 12.5, 125, and 1250 μM) in Chelex HEPES buffer. All solutions were allowed to incubate for 30 min on ice and subsequently concentrated by centrifugation (at 4,000 × g, 4°C for 25 min) to a volume of 250 μl using centrifugal molecular cutoff filters (Merck Millipore, 10,000 Da). […] Per inhibitor concentration, at least three biological replicates were performed and injected and measured in triplicates. For the MS analysis the kinetic energy discrimination mode with a helium flow rate of 5.7 ml/min, 20 sweeps per reading, and a dwell time of 100 ms/atomic mass unit (AMU) for Zn^66 and 50 ms/AMU for Rh^103 were applied. […] The zinc concentration within the samples was determined based on an external calibration curve (0, 290, 580, 1,160, and 2,320 μg/liter). […]

Series [2] is described as follows: Solubility measurement in PBS. Format: physicochemical. As to the method:
The solubility of ZN148 was evaluated in PBS buffer at pH 7.4. Increasing amounts of ZN148 was dissolved in 1.0 ml at room temperature by gentle swirling of the solution in a glass vial. A total of 1.225 g of ZN148 was successfully dissolved in 1.0 ml of PBS buffer, giving a total volume of 1.8 ml. This solution was stable at 4°C for more than 6 weeks without precipitation.

The next series deals with T2, NDM-1 (Klebsiella pneumoniae, UniProt C7C422).
T2 construct: made in house
T2 sequence (C7C422 29-270, looked up): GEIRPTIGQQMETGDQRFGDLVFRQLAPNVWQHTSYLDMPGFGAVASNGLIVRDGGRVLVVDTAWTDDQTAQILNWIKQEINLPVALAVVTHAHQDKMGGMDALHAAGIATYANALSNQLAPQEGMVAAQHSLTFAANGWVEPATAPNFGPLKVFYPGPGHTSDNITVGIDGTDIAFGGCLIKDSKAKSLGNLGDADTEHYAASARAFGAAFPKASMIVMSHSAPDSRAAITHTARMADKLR
The series can be described thus: Time-dependent inactivation kinetics of purified NDM-1 (imipenem). It is filed as biochemical. On the procedure:
Protein expression and purification of NDM-1 and VIM-2 were performed as previously described ([36], [43], [57]). Stock solutions of purified NDM-1 and VIM-2 were prepared in 50 mM HEPES buffer (pH 7.5; Merck). Inhibition of NDM-1 and VIM-2 were determined for ZN148 and the analogues ZN222, ZN223, and ZN228 at different concentrations of inhibitor after preincubation times of 2, 8, 15, 25, and 32 min in 50 mM HEPES buffer (pH 7.5) supplemented with 1 μM ZnSO4 (Sigma-Aldrich) and bovine serum albumin (Sigma-Aldrich; final concentration, 2 μg/ml) at 25°C. Concentrations of 1 nM VIM-2 and 30 nM NDM-1 were used, and the reaction was initiated by the addition of 30 μM nitrocefin (Merck) for VIM-2 or 100 μM imipenem (Sigma-Aldrich) for NDM-1. The reaction was measured at 482 nm (VIM-2) or […] (NDM-1) in either standard 96-well plates (Thermo Fisher Scientific) for VIM-2 or UV-transparent 96-well plates (Corning, Kennebunk, ME) for NDM-1 at 25°C in a SpectraMax Plus plate reader (Molecular Devices). All of the enzyme and substrate concentrations indicated are the final concentrations in the assay. The enzyme activity as a percentage was calculated based on the initial velocity and compared to the control without inhibitor compound. All tests were performed at least in duplicates.
The observed rate constant (kobs) per inhibitor concentration was calculated from the slope of a semilog plot of the enzyme activity in percent versus preincubation time.
By fitting these values, the irreversible kinetic parameters maximum inactivation rate (kinact) and the inhibitor concentration that produces half-maximal rate of inactivation (KI) were obtained. Finally, the inhibitors were characterized by calculating kinact/KI. Where no saturation curve could be observed, KI and kinact were determined from the linear part of plot 1/kobs versus 1/[I].

≈ marks a conversion by molar mass, not a printed value.

As usually defined, the solubility is how much of the substance goes into solution per volume. Higher therefore signals a readily soluble substance. Usually kinact stands for the maximal first-order rate at which the target is inactivated. As usually defined, the kinact/KI is the maximal inactivation rate divided by the concentration that gives half of it. In the case of `CN(C[C@H](O)[C@@H](O)[C@H](O)[C@H](O)CO)C(=O)c1ccc(CN(Cc2ccccn2)Cc2ccccn2)nc1` [ZN148], the “maximum meropenem MIC reached by evolved cultures” value in series [1] (50 µM ZN148, 8 passages) stood at 8 mg/L; in series [1] (100 µM ZN148, 6 passages), 2 mg/L. The “fold increase in meropenem MIC after serial passaging” value in series [1] (in the presence of 50 μM ZN148) is listed as 64 fold; in series [1] (in the presence of 100 μM ZN148), 16 fold. Besides, the “zinc removed from enzyme” value at VIM-2 is roughly 1.8 molar equivalents. Moreover, in series [2] (PBS buffer, pH 7.4, aqueous buffer, thermodynamic from solid, in phosphate-buffered saline [PBS]), the solubility came to 1220 mg/mL (≈ 2390 mM). Besides, the “stability of the solution without precipitation” value in series [2] (at 4°C, 1.225 g in 1.0 ml PBS) is on record as “more than 6 weeks”. Also, the “amount dissolved in 1.0 ml of PBS buffer” value in series [2] (pH 7.4, room temperature, total volume 1.8 ml) is reported as 1.225 g. On NDM-1, the kinact is 0.000983 s⁻¹. Moreover, at NDM-1, the kinact/KI was 3.17 M⁻¹ s⁻¹.
